Like-named read-outs stand apart in the source and are kept apart here.

The test system of assay [1] is Palmer amaranth, waterhemp, kochia, common ragweed or marestail. The following applies: spot foliar treatment of 20% of pot area, 560 g/ha dicamba acid equivalence, 150 L/ha; soybean, corn or cotton seeded immediately after, grown 21 days; compared with plot without crop and plot with uniform blanket treatment at 560 g/ha.
Description: (§1) The evaluation of the herbicidal efficacy is classified into 0 to 100, where the numeral “0” indicates no or little difference in the state of emergence or growth of weeds under test at the time of examination as compared with untreated weeds, and the numeral “100” indicates the complete death of weeds under test or the complete inhibition of emergence or growth of weeds under test.
A pot is filled with a soil, and then Palmer amaranth, waterhemp, kochia, common ragweed or marestail is seeded at a corner portion of the soil. […] Immediately thereafter, soybean (Genuity Roundup Ready 2 Xtend), corn (Genuity Roundup Ready 2), or cotton (Genuity Roundup Ready 2 Xtend) is seeded in a corner portion different from vegetation patches of weeds in the soil, and grown in the greenhouse for 21 days. This is defined as the invention plot.
For assay [2] the test system is unchanged. The note with it: weeds and soybean, corn or cotton grown 14 days, spot foliar treatment of 20% of pot area, 560 g/ha dicamba acid equivalence, 150 L/ha, then grown 21 days; compared with plot without crop and plot with uniform blanket treatment at 560 g/ha.
Description: as §1
A pot is filled with soil, and then Palmer amaranth, waterhemp, kochia, common ragweed, or marestail is seeded at a corner portion of the soil, and soybean (Genuity Roundup Ready 2 Xtend), corn (Genuity Roundup Ready 2), or cotton (Genuity Roundup Ready 2 Xtend) is seeded at another corner portion of the soil. […] Thereafter, the weeds and crops are grown in the greenhouse for 21 days. This is defined as the invention plot.

`CN(CCCN)CCCN.COc1c(Cl)ccc(Cl)c1C(=O)O` [dicamba-biproamine]: the weed control effect result in assay [1] and in assay [2] was “excellent weed control effect” in each case.

Values taken from patent US12336540B2, “Method for controlling weeds” (SUMITOMO CHEMICAL COMPANY, LIMITED, priority 2019, dated 2025).
